Several values for one entry are separate records, joined by “and”; a condition that tells them apart may be missing. Equal values may be shown once. Read-outs that look alike come from different tables or passages of the source.
Columns and labels:
[1] = Pharmacokinetic assessments in plasma, phase I/Ib study; format: in vivo, human; settings: for Fold increase in Cmax: fasting; for AUC(0-inf) / Cmax / AUC / half-life / Tmax / k el: human, plasma, oral; for AUC: read-out: AUC(0-τ); for Tmax: median; for k el: read-out: λz (converted)
Procedure: Complete PK assessments were performed during dose escalation on Day 1 of Cycle 1 and 2 and pre-dose at other time points (pre-dose on Day 8 and Day 15 of Cycle 1 and 2, Day 1 and Day 15 of Cycle 3 and 4 and pre-dose on Cycle 5 and beyond). In the dose expansion phase, samples were collected pre-dose on Day 1 from Cycle 1 to Cycle 8. The PK parameters included maximum plasma concentration (Cmax), time to maximum plasma concentration (Tmax), area under the plasma concentration-time curve from time of administration to the end of the dosing interval (AUC(0-τ)), apparent oral drug clearance during a dosing interval (CLss/F), apparent volume of distribution during a dosing interval (Vz/F) and elimination half-life (t1/2) were evaluated.

[2] = system: patient-derived primary cell lines representative of B and T lymphoma cell lines; design: method as in doi:10.1182/blood.V122.21.4418.4418; settings: cited from earlier work
[3] = design: method as in ref 27 = [27]; 27. Barde P. Rhizen, Switzerland Unpublished work 2016; settings: healthy volunteers, high fat meal; cited from earlier work
[4] = system: relapsed/refractory T-cell lymphoma (PTCL and CTCL); assay: Efficacy assessment (ORR, DoR), all evaluable patients; format: in vivo, human; settings: for Median DoR (95% CI) / ORR (95% CI): All
Procedure: Efficacy assessments included radiological, bone marrow biopsy/aspiration and skin assessments. In some cases, bone marrow disease alone was used for disease assessment. In these cases, response was reported as CR or non-CR.
In PTCL patients, radiological assessment was performed at screening, Day 1 of Cycle 3 and 5 and approximately 12 weeks thereafter. Assessments of skin lesions in PTCL patients were performed, if applicable. Bone marrow biopsy/aspirate was performed in patients without measurable but assessable disease at screening and on Day 1 of Cycle 3 and 5, then also approximately 12 weeks thereafter to confirm a CR.
In CTCL patients, assessment of skin lesions was performed at screening, Day 1 of Cycle 3 and 5, approximately 12 weeks thereafter and at the end of treatment (EOT). Skin photographs were obtained for half body global and up to 5 selected representative index lesions at baseline, at Day 1 of Cycle 3, EOT, at PR/CR/progressive disease (PD) and as required as per the discretion of the Investigator. In case of nodal involvement, radiological assessment was performed at screening, Day 1 of Cycle 3 and 5 and approximately 12 weeks thereafter. Skin biopsy was performed from the most indurated area at screening, on C3D1 and to confirm a CR.
The efficacy parameters included ORR and DoR. Revised Response Criteria for Malignant Lymphoma (Cheson 2007) was used for evaluation of PTCL [21]. International Society for Cutaneous Lymphomas Response Criteria for Mycosis Fungoides and Sezary Syndrome (SS) and Cutaneous Lymphoma Task Force of the European Organization for Research and Treatment of Cancer criteria were used for evaluation of CTCL patients. For skin scoring, the modified Severity Weighted Assessment Tool was used. For local index lesion skin scoring, the Composite Assessment of Index Lesion Severity was used.

[5] = system: patients; settings: cumulative safety data across two studies; cited from earlier work
[6] = system: PI3K δ/γ; settings: cited from earlier work
[7] = system: malignant patient derived primary CTCL cells; design: method as in ref 18 = [18]; 18. Mao G. Viswanadha S. Rhizen, Switzerland Unpublished work 2013; settings: cited from earlier work
[8] = between 400 mg and 800 mg BID, Cycle 1 Day 1
[9] = 200 mg, 200 mg BID, C1D1, geometric mean
[10] = 200 mg, 200 mg BID, C2D1, geometric mean
[11] = 400 mg, 400 mg BID, C1D1, geometric mean
[12] = 400 mg, 400 mg BID, C2D1, geometric mean
[13] = 800 mg, 800 mg BID (fed), C1D1, geometric mean
[14] = 800 mg, 800 mg BID (fed), C2D1, geometric mean
[15] = 800 mg, 800 mg BID, C1D1, geometric mean
[16] = 800 mg, 800 mg BID, C2D1, geometric mean
[17] = Dose Escalation 800 mg Fasting, N = 3
[18] = Dose Escalation 800 mg Fed, N = 5
[19] = Dose Expansion 800 mg Fasting, N = 22

In the case of CC[C@H](Nc1ncnc2[nH]cnc12)c1oc2ccccc2c(=O)c1-c1cccc(F)c1 [Tenalisib], the λz ([1]; 200 mg BID, C2D1) is reported as 0.4 h⁻¹, the λz ([1]; 400 mg BID, C2D1) is reported as 0.4 h⁻¹ and the λz ([1]; 800 mg BID (fed), C1D1) is reported as 0.3 h⁻¹. For the same compound, the λz ([1]; 800 mg BID (fed), C2D1) was 0.3 h⁻¹, the “Food effect on exposure” value ([1]; 800 mg BID fasting vs 800 mg BID fed cohort, patients) was “not significant” and the λz ([1]; 800 mg BID, C2D1) was 0.3 h⁻¹. The “Change in Cmax and AUC's, fed vs fasting” value ([1]; 800 mg fed and fasting cohorts, patients) was less than 20%, the “Dose proportionality of Cmax and AUC(0-τ)” value ([1]; Cycle 1 Day 1) was “increased proportionally with dose” and the “Tissue distribution (Vz/F)” value ([1]; all cohorts) was “not highly distributed in tissues”. The “Fold increase in AUC(0-τ)” value ([1]; between 200mg and 400 mg BID, Cycle 1 Day 1) was 1.8 fold, the “Fold increase in Cmax” value ([1]; between 200 mg and 400 mg BID, Cycle 1 Day 1) was 1.7 fold and the “Fold increase in Cmax” value ([1]; between 200 mg and 400 mg BID, Cycle 2 Day 1) was 1.8 fold. For the same compound, the “Fold increase in AUC(0-τ)” value [1, 8] was 2.6 fold, the “Fold increase in Cmax” value [1, 8] was 1.8 fold and the “Fold increase in Cmax” value ([1]; between 400 mg and 800 mg BID, Cycle 2 Day 1) was 1.1 fold. The Accumulation ([1]; between Cycle 1 Day 1 and Cycle 2 Day 1) was “no significant accumulation”, the AUC(0-inf) [1, 9] was 3540 ng·h/mL and the Cmax [1, 9] was 1300 ng/mL. It also gave an AUC [1, 9] of 3500 ng·h/mL, a half-life ([1]; 200 mg, 200 mg BID, C1D1, geometric mean, read-out: t1/2 (converted)) of 1.6 h and a Tmax ([1]; 200 mg, 200 mg BID, C1D1) of 1 h. It also gave an AUC(0-inf) [1, 10] of 4020 ng·h/mL, a Cmax [1, 10] of 1650 ng/mL and an AUC [1, 10] of 3970 ng·h/mL. The half-life ([1]; 200 mg, 200 mg BID, C2D1, geometric mean, read-out: t1/2 (converted)) was 1.8 h, the Tmax ([1]; 200 mg, 200 mg BID, C2D1) was 0.5 h and the AUC(0-inf) [1, 11] was 6530 ng·h/mL. It also gave a Cmax [1, 11] of 2200 ng/mL, an AUC [1, 11] of 6420 ng·h/mL and a half-life ([1]; 400 mg, 400 mg BID, C1D1, geometric mean, read-out: t1/2 (converted)) of 1.9 h. For the same compound, the Tmax ([1]; 400 mg, 400 mg BID, C1D1) was 0.8 h, the AUC(0-inf) [1, 12] was 5600 ng·h/mL and the Cmax [1, 12] was 2900 ng/mL. The AUC [1, 12] was 5530 ng·h/mL, the half-life ([1]; 400 mg, 400 mg BID, C2D1, geometric mean, read-out: t1/2 (converted)) was 2 h and the Tmax ([1]; 400 mg, 400 mg BID, C2D1) was 0.5 h. It also gave an AUC(0-inf) [1, 13] of 14500 ng·h/mL, a Cmax [1, 13] of 2670 ng/mL and an AUC [1, 13] of 13600 ng·h/mL. The half-life ([1]; 800 mg, 800 mg BID (fed), C1D1, geometric mean, read-out: t1/2 (converted)) was 2.6 h, the Tmax ([1]; 800 mg, 800 mg BID (fed), C1D1) was 2.1 h and the AUC(0-inf) [1, 14] was 14200 ng·h/mL. The Cmax [1, 14] was 4170 ng/mL, the AUC [1, 14] was 13600 ng·h/mL and the half-life ([1]; 800 mg, 800 mg BID (fed), C2D1, geometric mean, read-out: t1/2 (converted)) was 2.8 h. For the same compound, the Tmax ([1]; 800 mg, 800 mg BID (fed), C2D1) was 1.1 h, the AUC(0-inf) [1, 15] was 17400 ng·h/mL and the Cmax [1, 15] was 4000 ng/mL. It also gave an AUC [1, 15] of 16400 ng·h/mL, a half-life ([1]; 800 mg, 800 mg BID, C1D1, geometric mean, read-out: t1/2 (converted)) of 2.6 h and a Tmax ([1]; 800 mg, 800 mg BID, C1D1) of 1.1 h. It also gave an AUC(0-inf) [1, 16] of 17200 ng·h/mL, a Cmax [1, 16] of 3230 ng/mL and an AUC [1, 16] of 16200 ng·h/mL. For the same compound, the half-life ([1]; 800 mg, 800 mg BID, C2D1, geometric mean, read-out: t1/2 (converted)) was 2.6 h, the Tmax ([1]; 800 mg, 800 mg BID, C2D1) was 2.1 h and the half-life ([1]; all cohorts, read-out: Median t1/2 (converted)) was 2.28 h. For the same compound, the half-life ([1]; all cohorts, read-out: t1/2 range) was 1.6 to 2.8 h, the k el ([1]; 200 mg BID, C1D1) was 0.000111 s⁻¹ and the k el ([1]; 400 mg BID, C1D1) was 0.000111 s⁻¹. The k el ([1]; 800 mg BID, C1D1) was 8.33e-05 s⁻¹, the “Apoptotic and anti-proliferative activity” value [2] was “demonstrated apoptotic and anti-proliferative activity” and the “Effect of food on Cmax” value [3] was “no significant effect on Cmax”. The “Effect of food on overall exposure” value [3] was “increased the overall exposure”, the “Complete response (CR), number of patients” value ([4]; 35 evaluable patients) was 3 patients and the “Partial response (PR)” value ([4]; 35 evaluable patients) was 13 n (%) and 13 (37%) n (%). The “Progressive disease (PD)” value ([4]; 35 evaluable patients) was 8 (22.9%) n (%), the “Complete response (CR)” value ([4]; 35 evaluable patients, three patients) was 9% and the “Median DoR (95% CI)” value ([4]; Cumulative Total, N = 35) was 4.9 months and 4.9 (4.3, 12.0) months. For the same compound, the “ORR (95% CI)” value ([4]; Cumulative Total, N = 35) was 45.7% and 45.7 (28.8, 63.4) %, the “Median DoR (95% CI)” value ([4]; Dose Escalation 200 mg, N = 3) was 4.9 (-,-) months and the “ORR (95% CI)” value ([4]; Dose Escalation 200 mg, N = 3) was 33.3 (0.8, 90.6) %. For the same compound, the “Median DoR (95% CI)” value ([4]; Dose Escalation 400 mg, N = 2) was 2.4 (0.97, 3.8) months, the “ORR (95% CI)” value ([4]; Dose Escalation 400 mg, N = 2) was 100.0 (15.8, 100.0) % and the “Median DoR (95% CI)” value [4, 17] was 10.9 (2.3, 19.5) months. For the same compound, the “ORR (95% CI)” value [4, 17] was 66.7 (9.4, 99.2) %, the “Median DoR (95% CI)” value [4, 18] was 3.3 (1.7, 4.9) months and the “ORR (95% CI)” value [4, 18] was 40.0 (5.3, 85.3) %. The “Median DoR (95% CI)” value ([4]; Dose Escalation Total, N = 13) was 3.8 (0.7, 10.2) months, the “ORR (95% CI)” value ([4]; Dose Escalation Total, N = 13) was 53.8 (25.1, 80.8) % and the “Median DoR (95% CI)” value [4, 19] was 7.5 (4.7, 15.9) months. The “ORR (95% CI)” value [4, 19] was 40.9 (20.7, 63.6) %, the Patients who responded ([4]; out of 35 evaluable patients) was 16 patients and the Time of response ([4]; responders) was “Most of the patients responded at Cycle 3 Day 1”. For the same compound, the “Colitis and pneumonitis events” value [5] was “no events of colitis and pneumonitis”, the Transaminitis incidence [5] was 10% and the Inhibitory potency ([6]; PI3K δ/γ) was “nanomolar”. For the same compound, the “Selectivity over α and β PI3K isoforms” value [6] was “several fold” and the Ex-vivo activity [7] was “shown ex-vivo activity”.

— PMC7463651, “Phase I/Ib Study of Tenalisib (RP6530), a Dual PI3K δ/γ Inhibitor in Patients with Relapsed/Refractory T-Cell Lymphoma” (Cancers, 2020)
